A short description of data set [1]: method code SF-HPLC, from DOI: 10.1248/cpb.38.1906, PMID: 2268893. The conditions noted are these: pH 6.9.
Data set [2] is described as follows: method code SF-HPLC, from DOI: 10.1016/0168-3659(88)90058-2. As to conditions: pH 7.4.
Data set [3] in a line: method code SF-RC, from DOI: 10.1016/j.nucmedbio.2003.12.003, PMID: 15093819. The conditions noted are these: pH 7.0.
Data set [4] in a line: method code SF, from DOI: 10.1002/ps.2780350215.
Data set [5] in a line: method code SF-RC, from DOI: 10.1016/j.nucmedbio.2005.06.001, PMID: 16253804. As to conditions: pH 7.4.
Data set [6] is described as follows: method code SF-HPLC, from DOI: 10.1002/jps.2600800905, PMID: 1800703.
Data set [7] can be described thus: method code SF-HPLC, from DOI: 10.1016/j.bmc.2009.01.040, PMID: 19208447. The conditions noted are these: pH 7.0.
Data set [8] is described as follows: method code SF-AS, from DOI: 10.1248/bpb1978.7.120, PMID: 6427444.
Data set [9] can be described thus: method code SF-EN, from DOI: 10.1016/s0022-2275(20)42614-8, PMID: 2280184. The conditions noted are these: pH 1.0.
Experiment in data set [10]: not given
This is another data set of the same source.

The nature of data set [11]: method code SF-RC, from DOI: 10.1016/j.nucmedbio.2016.05.003, PMID: 27236283. As to conditions: pH 7.4.
A short description of data set [12]: method code SF-RC, from DOI: 10.1016/0361-9230(85)90153-4, PMID: 2413968.
Experiment in data set [13]: not given
The source holds these as a separate data set.

Data set [14] is described as follows: method code SF-AS, from PMID: 1586384.
Data set [15] in a line: method code RP-HPLC, from DOI: 10.1021/jm00011a007, PMID: 7540207.
The nature of data set [16]: method code SF-AS, from DOI: 10.1016/s0022-5347(24)07568-2, PMID: 4149453. The conditions noted are these: pH 7.5.
Experiment in data set [17]: not given
The source holds these as a separate data set.

Data set [18] is described as follows: method code SF-HPLC, from DOI: 10.1016/0378-5173(89)90313-x. The conditions noted are these: pH 7.4.
Data set [19] in a line: method code SF-AS, from DOI: 10.1016/s0022-3565(25)38749-5, PMID: 8182532. The conditions noted are these: pH 7.4.
Data set [20] in a line: method code RP-TLC, from DOI: 10.1016/s0021-9673(03)00617-4, PMID: 12830921.
Data set [21] in a line: method code SF-RC, from DOI: 10.1016/j.nucmedbio.2016.01.003, PMID: 27067043. As to conditions: pH 7.4.
A short description of data set [22]: method code SF-AS, from DOI: 10.1016/j.bmc.2007.10.035, PMID: 18029186. The conditions noted are these: pH 7.4.
Data set [23] is described as follows: method code SF-RC, from DOI: 10.1002/jlcr.1076. As to conditions: pH 7.4.
Experiment in data set [24]: not given
The source holds these as a separate data set.

Each structure is given as a SMILES string. Where a SMILES comes first, the peptide text is derived from it.

As usually defined, the logD is the decadic logarithm of the distribution of all forms, ionised or not, between an organic phase and buffer at a given pH. Take `CON=C(C(=O)NC1C(=O)N2C(C(=O)OCOC(=O)C(C)(C)C)=C(CN(C=O)C(C)=C3CCOC(=O)S3)CSC12)c1csc(N)n1` (centres undefined): the pH-dependent lipophilicity (logD) in data set [1] worked out at 1.37.
On to `C#CC1(OC(=O)OCCCCC(O)CO)CCC2C3CCC4=CC(=O)CCC4C3CCC21CC` (centres undefined), for which the pH-dependent lipophilicity (logD) in data set [2] came out at 3.75.
In [3], `O=C(NCCc1ccc(S(=O)(=O)NC2CCCCC2)cc1)c1cc(I)ccc1OCCF` came in with a pH-dependent lipophilicity (logD) of 2.15.
The logP is the decadic logarithm of the partition coefficient of the neutral form, usually between octanol and water. Lower therefore signals a more hydrophilic compound. With `CCc1cccc(CC)c1NC(=O)c1c(C)n(CCc2ccccc2)c(C)c(Br)c1=O`, the log partition coefficient (logP) in data set [4] was determined as 3.63.
Regarding `CNc1ccc(C=Cc2ccc(OCCOCCOCCOCCF)cc2)cc1`, the pH-dependent lipophilicity (logD) in data set [5] worked out at 2.05.
Consider `CCC(C)(C)C(=O)O[C@H]1C[C@@H](C)C=C2C=C[C@H](C)[C@H](CC[C@@H](O)C[C@@H](O)CC(=O)O)[C@H]21` (relative stereo), for which, in data set [6] (pH 2.0), the logD came to 4.47.
With `CC(C(=O)OCC(O)C(O)C(O)C(O)CO)c1cccc(C(=O)c2ccccc2)c1` (centres undefined), in data set [7], the pH-dependent lipophilicity (logD) amounted to 0.78.
In data set [8], `CO[C@@]12[C@H](COC(N)=O)C3=C(C(=O)C(C)=C(N)C3=O)N1C[C@H]1[C@@H]2N1Cc1ccccc1` (some centres undefined) yielded a logP of 1.59.
In turn, `CC(CCC(=O)NCC(=O)O)C1CCC2C3C(O)CC4CC(O)CCC4(C)C3CC(C)(O)C12` (centres undefined) showed a logD in data set [9] of 1.9.
Consider `COC(=O)CN1CCN(C(COCc2cc(C(F)(F)F)cc(C(F)(F)F)c2)c2ccccc2)CC1` (centres undefined), for which the lipophilicity (logP) came out at 3.11.
On to `CC#CC1(O)CC[C@H]2[C@@H]3CCC4=CC(=O)CCC4=C3C(c3ccc(N(C)C)cc3)C[C@@]21C` (some centres undefined), for which the lipophilicity (logP) in data set [10] came out at 4.69.
`CC(=O)[C@@]1(C)CC[C@H]2[C@@H]3CCC4=CC(=O)CCC4=C3CC[C@@]21C`: the log partition coefficient (logP) in data set [10] stood at 4.34.
For `COc1cc(OCCF)cc(OC)c1NC(=O)c1ccc(Oc2cc3c(cc2C)CCC3(C)C)o1`, in data set [11], the logD was found to be 2.1.
`CC(C)C[C@H](NC(=O)[C@@H]1CCCN1C(=O)[C@@H](N)Cc1ccc(O)cc1)C(=O)NCC(N)=O` (H-YPLG-NH2) came in with a log partition coefficient (logP) in data set [12] of 0.06.
The compound `CC1CC2C3CCC4=CC(=O)CCC4C3CCC2(C)C1C(=O)CO` (centres undefined) had a logP in data set [13] of 4.02.
Compound `CC(=O)OC(C)OC(=O)c1cn2c3c(c(N4CCN(C)CC4)c(F)cc3c1=O)OCC2C` (centres undefined) gave a logP in [14] of 0.26.
Take `CN1CCN(C(COCc2cc(C(F)(F)F)cc(C(F)(F)F)c2)c2ccccc2)CC1` (centres undefined): the logP came out at 3.2.
On to `CCCCCN=c1ccn(Cc2ccc3ccccc3c2)c2cc(Cl)ccc12`, for which the logP in data set [15] amounted to 4.16.
Turning to `CCOC(=O)CC[C@H](NC(=O)c1ccc(N(C)Cc2cnc3nc(N)nc(N)c3n2)cc1)C(=O)OCC`, in data set [16], the pH-dependent lipophilicity (logD) worked out at 0.98.
`COc1cc2c(Nc3ccc(Cl)cc3F)ncnc2cc1OCCCN1CCOCC1` registered a logP in [17] of 3.6.
`CNc1ccc(C=Cc2ccc(OCCOCCOCCOCCOCCF)cc2)cc1` gave a pH-dependent lipophilicity (logD) in data set [5] of 2.28.
The compound `CN1C=CCC(C(=O)NCCOC(=O)CCCc2ccc(N(CCCl)CCCl)cc2)=C1` returned a logD in [18] of 2.16.
Turning to `CN1C=CCC(C(=O)NC2CCC(OC(=O)CCCc3ccc(N(CCCl)CCCl)cc3)CC2)=C1` (centres undefined), the log distribution coefficient (logD) in data set [18] is 2.85.
In data set [9], `C[C@H](CCC(=O)O)[C@H]1CC[C@H]2[C@@H]3C[C@H](O)[C@@H]4C[C@H](O)CC[C@]4(C)[C@H]3C[C@H](O)[C@]12C` came in with a pH-dependent lipophilicity (logD) of 2.8.
Turning to `NC(=O)CC[C@@H]1NC(=O)[C@H](Cc2ccccc2)NC(=O)[C@H](Cc2ccc(O)cc2)NC(=O)[C@@H](N)CSSC[C@@H](C(=O)N2CCC[C@H]2C(=O)N[C@@H](CCCN=C(N)N)C(=O)NCC(N)=O)NC(=O)[C@H](CC(N)=O)NC1=O`, in data set [12], the logP was -2.15.
Turning to `CCCCCCCCCCOc1ccc(C(=O)Nc2cc(C(=O)NCCCC)ccc2SC)cc1`, the logD in [19] is 5.2.
`CCC12C=C(C(=O)OCCCO)n3c4c(c5ccccc53)CCN(CCC1)C42` (centres undefined) returned a lipophilicity (logP) in [20] of 3.89.
Regarding `CO[C@@]12[C@H](COC(N)=O)C3=C(C(=O)C(C)=C(N)C3=O)N1C[C@H]1[C@@H]2N1C(=O)c1ccccc1`, in data set [8], the logP came to 1.89.
For the compound `COC(=O)CC[C@H](NC(=O)c1cc(Cl)c(N(C)Cc2cnc3nc(N)nc(N)c3n2)c(Cl)c1)C(=O)OC`, the logD in data set [16] was determined as 1.69.
Take `C=CC(=O)NCCCCC(NC(=O)OCc1ccccc1)C(=O)N1CCN(c2ccccc2Cl)CC1` (centres undefined): the logD in data set [21] was found to be 3.
Consider `CC[C@H](C)C(=O)O[C@H]1CCC=C2C=C[C@H](C)[C@H](CC[C@@H]3C[C@@H](O)CC(=O)O3)[C@H]21`, for which, in data set [6] (pH 7.0), the logD was found to be 3.85.
For `O=C(NCCc1ccc(S(=O)(=O)NC2CCCCC2)cc1)c1cc(Cl)ccc1OCCF`, the log distribution coefficient (logD) in data set [3] amounted to 2.09.
On to `CC(=O)NC1C(OCCN(C)C(=O)Cn2ccnc2[N+](=O)[O-])OC(COC(C)=O)C(OC(C)=O)C1OC(C)=O` (centres undefined), for which, in data set [22], the log distribution coefficient (logD) is -1.29.
In the case of `COc1cc(NCCCF)cc(OC)c1NC(=O)c1ccc(Oc2cc3c(cc2C)CCC3(C)C)o1`, in data set [11], the logD is 1.51.
In data set [15], `CCCCCN=c1ccn(Cc2cccc3ccccc23)c2cc(Cl)ccc12` yielded a logP of 4.01.
In data set [2], `C#CC1(OC(=O)OCC(O)CO)CCC2C3CCC4=CC(=O)CCC4C3CCC21CC` (centres undefined) displayed a logD of 3.22.
Regarding `CC1CC2C3CCC4=CC(=O)CCC4C3CCC2(C)C1C(=O)CF` (centres undefined), in data set [13], the logP amounted to 4.66.
`COc1ccc2c(c1)C1(C)CCC3c4cc(I)c(O)cc4CCC3C1C2` (centres undefined) showed a logD in [23] of 1.8.
In data set [7], `CC(C(=O)OCC(O)C(O)C(O)C(O)C=O)c1cccc(C(=O)c2ccccc2)c1` (centres undefined) showed a log distribution coefficient (logD) of 1.26.
For the compound `CCN(CC)C(=O)C(C#N)=Cc1cc(OCOC(=O)C(C)(C)C)c(OCOC(=O)C(C)(C)C)c([N+](=O)[O-])c1`, in data set [24], the logP turned out to be 3.86.
Take `C=CC(=O)Nc1ccc(S(=O)(=O)N2CCN(C(=O)C34CC5CC(CC(C5)C3)C4)CC2)cc1`: the logD in data set [21] was found to be 2.67.
`CCCCn1c(C)cc(=O)c(C(=O)Nc2c(CC)cccc2CC)c1C`: the logP in data set [4] was found to be 2.52.
As for `CC(=O)OCOC(=O)c1cn2c3c(c(N4CCN(C)CC4)c(F)cc3c1=O)OCC2C` (centres undefined), the logP in data set [14] stood at 0.02.
In the case of `CCC12C=C(C(=O)OCCO)n3c4c(c5ccccc53)CCN(CCC1)C42` (centres undefined), the lipophilicity (logP) in data set [20] turned out to be 3.62.
The compound `CC(C)CCC(=O)CC1c2ccccc2C(=O)N1c1ccc2ccc(Cl)nc2n1` (centres undefined) registered a logD in data set [19] of 4.8.
As to `CCN(CC)C(=O)C(C#N)=Cc1cc(OC(=O)CC(=O)C(C)(C)C)c(OC(=O)CC(=O)C(C)(C)C)c([N+](=O)[O-])c1`, the log partition coefficient (logP) in [24] was 3.99.
In data set [17], `COc1cc2c(Nc3ccc(Cl)cc3F)ncnc2cc1OCCCN1CCN(C)CC1` came in with a logP of 3.3.
In [23], `COc1ccc2c(c1)C1(C)CCC3c4ccc(O)c(I)c4CCC3C1C2` (centres undefined) displayed a log distribution coefficient (logD) of 2.5.
The compound `CC(=O)OCC1OC(OCCN(C)C(=O)n2ccnc2[N+](=O)[O-])C(OC(C)=O)C(OC(C)=O)C1OC(C)=O` (centres undefined) had a logD in data set [22] of -0.98.
